Test results from US20250026743A1, “HETEROARYL-LINKED ANALOGS AS MGLU5 NEGATIVE ALLOSTERIC MODULATORS AND METHODS OF MAKING AND USING THE SAME” (Vanderbilt University, priority 2021, published 2025).
Where two headings read alike, the source gives them in different places.

Experiments:
[1] = intravenous administration, rhesus monkeys; cited from earlier work
[2] = target: T1, cytochrome P450 1A2 (Homo sapiens, UniProt P05177); details: cited from earlier work
T1 sequence (P05177 1-516): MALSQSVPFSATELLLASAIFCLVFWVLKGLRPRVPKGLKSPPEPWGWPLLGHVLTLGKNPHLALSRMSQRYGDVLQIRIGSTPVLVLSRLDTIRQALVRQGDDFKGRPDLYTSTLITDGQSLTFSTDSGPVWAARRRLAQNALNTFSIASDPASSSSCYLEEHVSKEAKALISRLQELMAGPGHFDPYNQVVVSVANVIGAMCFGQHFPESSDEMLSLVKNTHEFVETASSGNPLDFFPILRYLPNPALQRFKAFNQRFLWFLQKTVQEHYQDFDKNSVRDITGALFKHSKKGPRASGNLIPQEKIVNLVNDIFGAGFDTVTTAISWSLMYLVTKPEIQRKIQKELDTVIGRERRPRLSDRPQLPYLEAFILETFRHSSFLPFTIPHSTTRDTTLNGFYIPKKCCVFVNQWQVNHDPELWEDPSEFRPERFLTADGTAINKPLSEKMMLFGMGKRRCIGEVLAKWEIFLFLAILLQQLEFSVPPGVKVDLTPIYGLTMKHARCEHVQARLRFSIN

[3] = target: T2, hmGlu5 (Homo sapiens, UniProt P41594); test: mGlu5 Ca2+ flux assay in HEK 293A cells (negative allosteric modulation of glutamate EC80 response); assay type: cell-based; details: for remaining activity at 30 µM: HEK293-A, read-out: hmGlu5 NAM Emin (%); for IC50: HEK 293A cells, Ca2+ flux, glutamate EC80, >10,000 = decrease without plateau, read-out: hmGlu5 NAM IC50
T2 construct: expressed in transfected cells; host or cells: HEK 293A
How it was run: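 HEK 293A cells stably expressing rat or human mGlu5, Fluo-4 AM loaded; compound added 2.3 min before glutamate EC20, then EC80; Ca2+ fluorescence peak amplitudes (F/F0) normalised to glutamate max. IC50 from 4-parameter logistic fit, 10-point 1:3 curves, top 30 μM; partial NAMs plateau above 10% Glu Max.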

[4] = target: mGlu4 (Homo sapiens, UniProt Q14833); details: cited from earlier work
[5] = test system: N-methyl-D-aspartate (NMDA) receptor; details: at higher concentrations; cited from earlier work

T2 sequence (P41594 21-1212): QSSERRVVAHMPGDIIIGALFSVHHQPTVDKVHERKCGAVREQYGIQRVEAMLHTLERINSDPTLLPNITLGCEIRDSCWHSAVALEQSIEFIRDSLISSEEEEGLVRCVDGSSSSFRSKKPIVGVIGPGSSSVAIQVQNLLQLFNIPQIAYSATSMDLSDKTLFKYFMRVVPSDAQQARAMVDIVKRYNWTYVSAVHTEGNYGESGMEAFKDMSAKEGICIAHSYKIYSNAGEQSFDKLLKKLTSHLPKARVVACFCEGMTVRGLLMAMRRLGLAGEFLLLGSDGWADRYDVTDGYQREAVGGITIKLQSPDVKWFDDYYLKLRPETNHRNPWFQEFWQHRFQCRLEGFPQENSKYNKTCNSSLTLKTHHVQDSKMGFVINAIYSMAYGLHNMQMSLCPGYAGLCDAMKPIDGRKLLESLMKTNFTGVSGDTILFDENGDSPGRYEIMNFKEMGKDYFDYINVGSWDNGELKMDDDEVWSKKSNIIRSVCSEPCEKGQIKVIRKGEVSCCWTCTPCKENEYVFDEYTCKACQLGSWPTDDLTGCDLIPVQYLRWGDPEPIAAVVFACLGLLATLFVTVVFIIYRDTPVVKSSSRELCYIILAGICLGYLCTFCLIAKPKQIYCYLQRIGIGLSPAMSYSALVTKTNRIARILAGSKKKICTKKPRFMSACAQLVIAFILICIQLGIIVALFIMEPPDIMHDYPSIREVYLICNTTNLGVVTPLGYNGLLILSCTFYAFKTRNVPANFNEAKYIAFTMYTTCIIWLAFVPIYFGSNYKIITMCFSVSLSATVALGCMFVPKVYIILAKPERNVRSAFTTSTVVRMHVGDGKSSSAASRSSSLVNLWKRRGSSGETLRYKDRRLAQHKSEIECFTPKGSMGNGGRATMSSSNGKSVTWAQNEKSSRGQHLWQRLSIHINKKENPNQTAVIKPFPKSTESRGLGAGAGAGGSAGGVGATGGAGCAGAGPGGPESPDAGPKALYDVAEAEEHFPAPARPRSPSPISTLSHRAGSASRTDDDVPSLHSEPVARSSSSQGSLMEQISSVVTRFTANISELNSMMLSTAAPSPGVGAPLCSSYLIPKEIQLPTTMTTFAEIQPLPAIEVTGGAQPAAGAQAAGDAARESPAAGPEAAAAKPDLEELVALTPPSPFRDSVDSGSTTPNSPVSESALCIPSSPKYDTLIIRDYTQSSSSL
Chain of mGlu4 (Q14833 33-912): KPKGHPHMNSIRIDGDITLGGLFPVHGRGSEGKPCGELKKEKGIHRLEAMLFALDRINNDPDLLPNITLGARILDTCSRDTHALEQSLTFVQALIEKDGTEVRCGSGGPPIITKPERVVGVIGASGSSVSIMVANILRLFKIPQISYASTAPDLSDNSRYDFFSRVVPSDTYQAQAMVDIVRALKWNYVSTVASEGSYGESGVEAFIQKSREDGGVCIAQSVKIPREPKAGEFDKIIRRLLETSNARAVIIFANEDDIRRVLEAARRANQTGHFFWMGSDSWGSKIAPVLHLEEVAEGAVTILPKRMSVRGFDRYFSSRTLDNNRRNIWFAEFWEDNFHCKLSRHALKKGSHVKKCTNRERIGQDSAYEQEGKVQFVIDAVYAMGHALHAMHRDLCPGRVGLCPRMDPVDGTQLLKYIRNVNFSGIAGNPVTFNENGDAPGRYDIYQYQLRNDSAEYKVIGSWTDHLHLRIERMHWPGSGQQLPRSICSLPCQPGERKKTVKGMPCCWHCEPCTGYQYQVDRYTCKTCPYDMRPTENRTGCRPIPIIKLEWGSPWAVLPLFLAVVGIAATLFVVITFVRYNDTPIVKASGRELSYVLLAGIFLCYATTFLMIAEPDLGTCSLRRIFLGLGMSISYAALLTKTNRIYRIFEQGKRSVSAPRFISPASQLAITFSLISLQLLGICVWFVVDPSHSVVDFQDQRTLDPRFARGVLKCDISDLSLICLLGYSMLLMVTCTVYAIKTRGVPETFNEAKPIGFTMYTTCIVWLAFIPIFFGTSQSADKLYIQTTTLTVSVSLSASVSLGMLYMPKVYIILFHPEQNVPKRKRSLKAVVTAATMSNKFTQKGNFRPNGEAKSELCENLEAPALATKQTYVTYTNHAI

Row | remaining activity at 30 µM ([3]; % Glu max at 30 μM) [%] | IC50 [3] [nM] | Structure (SMILES) | also measured
1 |  |  | Cc1nc(C#Cc2cccnc2)cs1 [MTEP, 3-[(2-methyl-1,3-thiazol-4-yl)ethynyl]pyridine] | clearance [1]: efficiently cleared; inhibition of cytochrome P450 1A2 [2]: potent inhibitor
2 | 2 | 46 | Cc1cc(O[C@@H]2CCOC2)cc(-c2noc(-c3ccccn3)n2)n1 [Compound 113, (R)-3-(6-methyl-4-((tetrahydrofuran-3-yl)oxy)pyridin-2-yl)-5-(pyridin-2-yl)-1,2,4-oxadiazole] | 
3 | 2 | 1110 | COc1c(-c2cnn(C(F)F)c2)cc(-c2noc(-c3ccc(F)cn3)n2)nc1C [Compound 12, 3-(4-(1-(difluoromethyl)-1H-pyrazol-4-yl)-5-methoxy-6-methylpyridin-2-yl)-5-(5-fluoropyridin-2-yl)-1,2,4-oxadiazole] | 
4 | 2 | 304 | Cc1nc(-c2noc(-c3ccc(F)cn3)n2)cc(-c2cncc(F)c2C)c1F [Compound 41, 3-(5,5′-difluoro-4,6′-dimethyl-[3,4′-bipyridin]-2′-yl)-5-(5-fluoropyridin-2-yl)-1,2,4-oxadiazole] | 
5 | 27 | > 10000 | Cc1ccncc1-c1cc(-c2noc(C(C)c3ccccc3)n2)nc(C)c1F (centres unmarked) [Compound 95, 3-(5′-fluoro-4,6′-dimethyl-[3,4′-bipyridin]-2′-yl)-5-(1-phenylethyl)-1,2,4-oxadiazole] | 
6 | 9 | 1890 | Cc1cc(F)nc(-c2cc(-c3noc(-c4ccc(F)cn4)n3)nc(C)c2F)c1 [Compound 66, 3-(5′,6-difluoro-4,6′-dimethyl-[2,4′-bipyridin]-2′-yl)-5-(5-fluoropyridin-2-yl)-1,2,4-oxadiazole] | 
7 | 2 | 159 | Cc1nc(-c2noc(-c3ccc(F)cn3)n2)cc(-c2cnn(C(F)F)c2)c1F [Compound 7, 3-(4-(1-(difluoromethyl)-1H-pyrazol-4-yl)-5-fluoro-6-methylpyridin-2-yl)-5-(5-fluoropyridin-2-yl)-1,2,4-oxadiazole] | 
8 | 2 | 663 | COc1c(-c2cncc(F)c2)cc(-c2n[nH]c(-c3ccc(F)cc3)n2)nc1C [Compound 102, 5-fluoro-6′-(5-(4-fluorophenyl)-1H-1,2,4-triazol-3-yl)-3′-methoxy-2′-methyl-3,4′-bipyridine] | 
9 | 13 | > 10000 | Cc1csc(-c2noc(-c3cc(-c4cnccc4C)c(F)c(C)n3)n2)n1 [Compound 105, 5-(5′-fluoro-4,6′-dimethyl-[3,4′-bipyridin]-2′-yl)-3-(4-methylthiazol-2-yl)-1,2,4-oxadiazole] | 
10 | 12 | 3380 | COc1ccnc(-c2nc(-c3cc(-c4cnccc4C)c(F)c(C)n3)no2)c1 [Compound 25, 3-(5′-fluoro-4,6′-dimethyl-[3,4′-bipyridin]-2′-yl)-5-(4-methoxypyridin-2-yl)-1,2,4-oxadiazole] | 
11 | 2 | 946 | Cc1nc(-c2nnc(-c3ccc(F)cn3)o2)cc(-c2cncc(F)c2)c1OC(C)C [Compound 45, 2-(5-fluoro-5′-isopropoxy-6′-methyl-[3,4′-bipyridin]-2′-yl)-5-(5-fluoropyridin-2-yl)-1,3,4-oxadiazole] | 
12 | 2 | 183 | Cc1ccncc1-c1cc(-c2n[nH]c(-c3ccc(F)cn3)n2)nc(C)c1F [Compound 97, 3′-fluoro-6′-(5-(5-fluoropyridin-2-yl)-1H-1,2,4-triazol-3-yl)-2′,4-dimethyl-3,4′-bipyridine] | 
13 | 3 | 109 | Cc1nc(-c2noc(-c3ccc(F)cn3)n2)cc(-c2cnccc2Cl)c1F [Compound 69, 3-(4-chloro-5′-fluoro-6′-methyl-[3,4′-bipyridin]-2′-yl)-5-(5-fluoropyridin-2-yl)-1,2,4-oxadiazole] | 
14 | 3 | 98 | Cc1ccncc1-c1cc(-c2noc(-c3ccc(F)cn3)n2)nc(C)c1F [Compound 5, 3-(5′-fluoro-4,6′-dimethyl-[3,4′-bipyridin]-2′-yl)-5-(5-fluoropyridin-2-yl)-1,2,4-oxadiazole] | 
15 | 4 | 493 | Cc1ccncc1-c1cc(-c2noc(-c3cccc(Cl)n3)n2)nc(C)c1F [Compound 21, 5-(6-chloropyridin-2-yl)-3-(5′-fluoro-4,6′-dimethyl-[3,4′-bipyridin]-2′-yl)-1,2,4-oxadiazole] | 
16 | 9 | 5750 | COc1ncc(-c2cc(-c3nnc(-c4ccc(F)cn4)o3)nc(C)c2F)cc1F [Compound 76, 2-(5,5′-difluoro-6-methoxy-6′-methyl-[3,4′-bipyridin]-2′-yl)-5-(5-fluoropyridin-2-yl)-1,3,4-oxadiazole] | 
17 | 2 | 148 | Cc1nc(-c2nnc(-c3ccc(F)cn3)o2)cc(-c2cnn(C(F)F)c2)c1F [Compound 74, 2-(4-(1-(difluoromethyl)-1H-pyrazol-4-yl)-5-fluoro-6-methylpyridin-2-yl)-5-(5-fluoropyridin-2-yl)-1,3,4-oxadiazole] | 
18 | 2 | 207 | [2H]C([2H])([2H])c1cc(-c2cncc(F)c2)cc(-c2noc(-c3ccc(F)cn3)n2)n1 [Compound 35, 3-(5-fluoro-6′-(methyl-d3)-[3,4′-bipyridin]-2′-yl)-5-(5-fluoropyridin-2-yl)-1,2,4-oxadiazole] | 
19 | 2 | 117 | Cc1ccncc1-c1cc(-c2noc(-c3cccc(Cl)c3)n2)nc(C)c1F [Compound 23, 5-(3-chlorophenyl)-3-(5′-fluoro-4,6′-dimethyl-[3,4′-bipyridin]-2′-yl)-1,2,4-oxadiazole] | 
20 | 2 | 575 | Cc1ccncc1-c1cc(-c2noc(-c3ccc(Cl)cn3)n2)nc(C)c1F [Compound 26, 5-(5-chloropyridin-2-yl)-3-(5′-fluoro-4,6′-dimethyl-[3,4′-bipyridin]-2′-yl)-1,2,4-oxadiazole] | 
21 | 9 | 613 | Cc1csc(-c2nc(-c3cc(-c4cncc(F)c4)c(F)c(C)n3)no2)n1 [Compound 16, 3-(5,5′-difluoro-6′-methyl-[3,4′-bipyridin]-2′-yl)-5-(4-methylthiazol-2-yl)-1,2,4-oxadiazole] | 
22 | 5 | 624 | [2H]C([2H])([2H])Oc1c(-c2cncc(F)c2)cc(-c2nc(-c3ccc(F)cn3)no2)nc1C [Compound 103, 5-(5-fluoro-5′-(methoxy-d3)-6′-methyl-[3,4′-bipyridin]-2′-yl)-3-(5-fluoropyridin-2-yl)-1,2,4-oxadiazole] | 
23 | 3 | 493 | COc1cncc(-c2cc(-c3noc(-c4ccc(F)cn4)n3)nc(C)c2F)c1 [Compound 30, 3-(5′-fluoro-5-methoxy-6′-methyl-[3,4′-bipyridin]-2′-yl)-5-(5-fluoropyridin-2-yl)-1,2,4-oxadiazole] | 
24 | 5 | 1290 | Cc1nc(-c2noc(-c3ccc(F)cn3)n2)cc(-c2cncc(C(C)(C)O)c2)c1F [Compound 62, 2-(3′-fluoro-6′-(5-(5-fluoropyridin-2-yl)-1,2,4-oxadiazol-3-yl)-2′-methyl-[3,4′-bipyridin]-5-yl)propan-2-ol] | 
25 |  |  | Cc1cccc(C#Cc2ccccc2)n1 [MPEP, 2-methyl-6-(phenylethynyl) pyridine] | modulation of mGlu4 [4]: positive allosteric modulator; inhibition of NMDA receptor activity [5]: directly inhibit

Row | Structure (SMILES) | remaining activity at 30 µM ([3]; % Glu max at 30 μM) [%] | IC50 [3] [nM] | also measured
26 | Cc1ccc(-c2nnc(-c3cc(-c4cncc(F)c4)c(F)c(C)n3)o2)nc1 [Compound 57, 2-(5,5′-difluoro-6′-methyl-[3,4′-bipyridin]-2′-yl)-5-(5-methylpyridin-2-yl)-1,3,4-oxadiazole] |  | 1080 | remaining activity at 30 µM [3]: 4%
27 | Cc1nc(-c2noc(-c3cccc(Cl)c3)n2)cc(-c2cncc(F)c2)c1F [Compound 44, 5-(3-chlorophenyl)-3-(5,5′-difluoro-6′-methyl-[3,4′-bipyridin]-2′-yl)-1,2,4-oxadiazole] |  | 5800 | remaining activity at 30 µM [3]: 34%
28 | Cc1nc(-c2nnc(-c3ccccn3)o2)cc(-c2cncc(F)c2)c1F [Compound 79, 2-(5,5′-difluoro-6′-methyl-[3,4′-bipyridin]-2′-yl)-5-(pyridin-2-yl)-1,3,4-oxadiazole] |  | 673 | remaining activity at 30 µM [3]: 2%
